What was measured:
Assay type in all cases: cell-based
[1] = test system: Staphylococcus hominis DMS 20328 (= SH); assay: MIC determination in microtiter plates, Staphylococcus hominis; settings: Tables 2a/2b, 48 hours at 37° C., ≦20% growth, optical density 620 nm, tested at 120, 60, 30, 15, 7.5 and 3.5 ppm, some approximate
Experimental: (§1) Determination of the Minimum Inhibitory Concentration (MIC Value) in Microtiter Plates
(§2) Casein/soybean flour peptone bouillon for the preparation of pre-cultures of the test bacteria and yeast.
(§3) Mycological slant agar for the pre-culture of moulds
(§4) The test substances are pre-dissolved in dimethyl sulfoxide (DMSO) and tested in a dilution series of 1:2.
(§5) Bacteria and yeast are cultured overnight in CASO bouillon, the mould is cultured overnight on mycological slant agar, and washed off with 10 ml of 0.85% sodium chloride solution (+0.1% TritonX-100).
(§6) All the test organisms are adjusted to an organism count of 1−5×10^6 CFU/ml using 0.85% sodium chloride solution.
(§7) The test substances are pre-pipetted into microtiter plates in an amount of 8 μl per well.
(§8) Pre-diluted organism suspensions are diluted 1:100 in CASO bouillon (bacteria and yeast) or Sabouraud 2% glucose bouillon (mould) and are added in an amount of 192 μl per well to the test substances.
(§9) The test batches are incubated for 48 hours at 37° C. (bacteria and yeast) or for 5 days at 28° C. (mould).
(§10) After incubation, the growth is evaluated by reference to the turbidity of the test batches (optical density) at 620 nm in a microplate reader.
(§11) One microtiter plate is used for each test organism and substance concentration. All the substances are tested in duplicate.

[2] = test system: Pseudomonas aeruginosa CIP A-22 (= PA); assay: MIC determination in microtiter plates, Pseudomonas aeruginosa; settings: Tables 2a/2b, 48 hours at 37° C., ≦20% growth, optical density 620 nm, some approximate values
Experimental: as §1, §2, §3, §4, §5, §6, §7, §8, §9, §10, §11

[3] = test system: Candida albicans ATCC 10231 (= CA); assay: MIC determination in microtiter plates, Candida albicans; settings: Tables 2a/2b, 48 hours at 37° C., ≦20% growth, optical density 620 nm, some approximate values
Experimental: as §1, §2, §3, §4, §5, §6, §7, §8, §9, §10, §11

[4] = test system: Aspergillus niger ATCC 6275 (= AN); assay: MIC determination in microtiter plates, Aspergillus niger; settings: Tables 2a/2b, 5 days at 28° C., ≦20% growth, optical density 620 nm, some approximate values
Experimental: as §1, §2, §3, §4, §5, §6, §7, §8, §9, §10, §11

[5] = test system: Escherichia coli NCTC 8196 (= EC); assay: MIC determination in microtiter plates, Escherichia coli; settings: Tables 2a/2b, 48 hours at 37° C., ≦20% growth, optical density 620 nm, some approximate values
Experimental: as §1, §2, §3, §4, §5, §6, §7, §8, §9, §10, §11

| Compound | MIC [ppm] SH [1] | MIC [ppm] PA [2] | MIC [ppm] CA [3] | MIC [ppm] AN [4] | MIC [ppm] EC [5] |
| --- | --- | --- | --- | --- | --- |
| COc1cccc(COc2ccc(CCN)cc2OCc2cccc(OC)c2)c1 [Compound 4] | 30 ppm | >120 ppm | 60 ppm | 7.5 ppm | 60 ppm |
| Cc1ccccc1COc1ccc(CCN)cc1OCc1ccccc1C [Compound 5] | 7.5 ppm | >120 ppm | 15 ppm | 7.5 ppm | 15 ppm |
| Cc1cccc(COc2ccc(CCN)cc2OCc2cccc(C)c2)c1 [Compound 6] | 7.5 ppm | 120 ppm | 7.5 ppm | 120 ppm | 15 ppm |
| Cc1ccc(COc2ccc(CCN)cc2OCc2ccc(C)cc2)cc1 [Compound 7] | 3.75 ppm | 120 ppm | 3.75 ppm | >120 ppm | 7.5 ppm |
| NCCc1ccc(OCc2ccccc2C(F)(F)F)c(OCc2ccccc2C(F)(F)F)c1 [Compound 8] | 7.5 ppm | >120 ppm | 15 ppm | >120 ppm | 7.5 ppm |
| NCCc1ccc(OCc2cccc(C(F)(F)F)c2)c(OCc2cccc(C(F)(F)F)c2)c1 [Compound 9] | 3.75 ppm | >120 ppm | 7.5 ppm | >120 ppm | 3.75 ppm |
| NCCc1ccc(OCc2ccc(C(F)(F)F)cc2)c(OCc2ccc(C(F)(F)F)cc2)c1 [Compound 10] | 3.75 ppm | >120 ppm | 3.75 ppm | >120 ppm | 7.5 ppm |
| N#Cc1ccccc1COc1ccc(CCN)cc1OCc1ccccc1C#N [Compound 11] | 120 ppm | >120 ppm | >120 ppm | >120 ppm | >120 ppm |
| N#Cc1cccc(COc2ccc(CCN)cc2OCc2cccc(C#N)c2)c1 [Compound 12] | 60 ppm | >120 ppm | >120 ppm | 30 ppm | 120 ppm |
| N#Cc1ccc(COc2ccc(CCN)cc2OCc2ccc(C#N)cc2)cc1 [Compound 13] | 120 ppm | >120 ppm | >120 ppm | >120 ppm | 120 ppm |
| COC(=O)c1ccc(COc2ccc(CCN)cc2OCc2ccc(C(=O)OC)cc2)cc1 [Compound 14] | 7.5 ppm | 120 ppm | 30 ppm | >120 ppm | 30 ppm |
| NCCc1ccc(OCc2ccccc2F)c(OCc2ccccc2F)c1 [Compound 15] | 30 ppm | 120 ppm | 30 ppm | >120 ppm | 30 ppm |
| NCCc1ccc(OCc2cccc(F)c2)c(OCc2cccc(F)c2)c1 [Compound 16] | 7.5 ppm | 120 ppm | 7.5 ppm | >120 ppm | 7.5 ppm |
| NCCc1ccc(OCc2ccc(F)cc2)c(OCc2ccc(F)cc2)c1 [Compound 17] | 12 ppm | >120 ppm | 60 ppm | >120 ppm | 24 ppm |
| CC(C)(C)c1ccc(COc2ccc(CCN)cc2OCc2ccc(C(C)(C)C)cc2)cc1 [Compound 18] | 1.9 ppm | >120 ppm | 60 ppm | >120 ppm | >60 ppm |
| NCCc1ccc(OCc2ccccc2)c(OCc2ccccc2)c1 [Compound 19] | 28 ppm | >120 ppm | 60 ppm | >120 ppm | 28 ppm |
| NCCc1ccc(OCc2ccc3ccccc3c2)c(OCc2ccc3ccccc3c2)c1 [Compound 20] | 3.75 ppm | >120 ppm | >120 ppm | >120 ppm | >120 ppm |
| COC(=O)COc1ccc(CCN)cc1OCC(=O)OC [Compound 21] | >120 ppm | >120 ppm | >120 ppm | 120 ppm | >120 ppm |

| Compound | MIC [ppm] SH [1] | MIC [ppm] PA [2] | MIC [ppm] CA [3] | MIC [ppm] AN [4] | MIC [ppm] EC [5] |
| --- | --- | --- | --- | --- | --- |
| CCOC(=O)COc1ccc(CCN)cc1OCC(=O)OCC [Compound 22] | >120 ppm | >120 ppm | >120 ppm | >120 ppm | >120 ppm |
| CCCOC(=O)COc1ccc(CCN)cc1OCC(=O)OCCC [Compound 23] | >120 ppm | >120 ppm | >120 ppm | 15 ppm | >120 ppm |
| CC(C)OC(=O)COc1ccc(CCN)cc1OCC(=O)OC(C)C [Compound 24] | >120 ppm | >120 ppm | >120 ppm | 15 ppm | >120 ppm |
| CC(C)(C)OC(=O)COc1ccc(CCN)cc1OCC(=O)OC(C)(C)C [Compound 25] | >120 ppm | >120 ppm | >120 ppm | 15 ppm | >120 ppm |
| NCCc1ccc(OCC(=O)OCc2ccccc2)c(OCC(=O)OCc2ccccc2)c1 [Compound 26] | >120 ppm | >120 ppm | >120 ppm | >120 ppm | >120 ppm |
| CCOC(=O)CCCOc1ccc(CCN)cc1OCCCC(=O)OCC [Compound 27] | >120 ppm | >120 ppm | >120 ppm | >120 ppm | >120 ppm |
| CCOC(=O)CCCCOc1ccc(CCN)cc1OCCCCC(=O)OCC [Compound 28] | >120 ppm | >120 ppm | >120 ppm | >120 ppm | >120 ppm |
| CCCOc1ccc(CCN)cc1OCCC [Compound 29] | >120 ppm | >120 ppm | >120 ppm | >120 ppm | >120 ppm |
| CCCCOc1ccc(CCN)cc1OCCCC [Compound 30] | 120 ppm | >120 ppm | 120 ppm | >120 ppm | 120 ppm |
| CC(C)Oc1ccc(CCN)cc1OC(C)C [Compound 31] | >120 ppm | >120 ppm | >120 ppm | >120 ppm | >120 ppm |
| CCC(C)Oc1ccc(CCN)cc1OC(C)CC (stereo not drawn) [Compound 32] | >120 ppm | >120 ppm | >120 ppm | >120 ppm | >120 ppm |
| CC(C)CCOc1ccc(CCN)cc1OCCC(C)C [Compound 33] | 30 ppm | 120 ppm | 30 ppm | >120 ppm | 15 ppm |
| CCC(CC)Oc1ccc(CCN)cc1OC(CC)CC [Compound 35] | 60 ppm | >120 ppm | 60 ppm | >120 ppm | 60 ppm |
| CCCCCCOc1ccc(CCN)cc1OCCCCCC [Compound 36] | 3.75 ppm | >120 ppm | 3.75 ppm | >120 ppm | 3.75 ppm |
| CCCCCCCOc1ccc(CCN)cc1OCCCCCCC [Compound 37] | 3.75 ppm | >120 ppm | 30 ppm | >120 ppm | 30 ppm |
| CCCCCCCCOc1ccc(CCN)cc1OCCCCCCCC [Compound 38] | 7.5 ppm | >120 ppm | >120 ppm | >120 ppm | >120 ppm |
| CC(C)(C)OC(=O)COc1cc(CCN)cc(OCC(=O)OC(C)(C)C)c1OCC(=O)OC(C)(C)C [Compound 76] |  | >120 ppm | >120 ppm | >120 ppm | >120 ppm |

From US6846492B2, “Use of phenylethylamine derivatives for the antimicrobial treatment of surfaces” (Ciba Specialty Chemicals Corporation, priority 2000, dated 2005)
